Like-named read-outs stand apart in the source and are kept apart here.
Legend:
H1299 lung cancer cells = assay: Survival of H1299 cells exposed to cigarette smoke with/without saliva; format: cell-based, human; details: for effect on survival of H1299 cells exposed to CS (in words): CS + 30% saliva
Method: Four control groups, not exposed to tobacco smoke (referred to herein as TS or alternatively, as CS, standing for “cigarette smoke”) were compared to four study groups (similar groups which were also exposed to CS), as detailed hereinafter. The four control groups included the following: a group where the cells were incubated in medium alone and exposed to air (M), a group where the cells were incubated in medium supplemented with whole saliva and exposed to air (M+saliva), a group where the cells where incubated in medium and exposed to CS (M+CS) and a group where the cells were incubated in medium supplemented with saliva and exposed to CS (M+saliva+CS).
During smoke exposure, the cells were put into a smoking sealed chamber (33.5 cm^3) with CS pressure of 0.3 Bar. Control cells were subjected to the same procedures, but exposed only to fresh air. Cells were exposed to CS for one “puff” every 20 minutes for a 2 hours (120 minutes) period (unless indicated otherwise). Cells exposed to air served as control. Cells were used when it becomes confluent and the medium (with/without saliva) volume was compatibly to the dish in use.
In order to examine the possible effect of TSPO receptor ligands on the survival rate of cells exposed to both CS and saliva, the benzodiazepine TSPO ligand, diazepam, was added to cells prior to exposing the cells to CS+30% saliva.

human salivary TSPO = target: T1, human salivary TSPO (Homo sapiens, UniProt P30536); assay: Competition of TSPO ligands with [3H]PK11195 binding in human saliva; details: for binding affinity lower than that of PK11195: relative to PK11195
T1 construct: from tissue; host or cells: cells pelleted from human saliva samples (volunteers; smokers and non-smokers)
Method: (§1) After 80 minutes of incubation at 4° C., the samples were filtered through Whatman CF/C filters using a vacuum system, washed three times with 4 ml of 5 mM ice-cold phosphate buffer and placed in vials containing 4 ml of Opti-Fluor. Radioactivity was counted after 12 hours with a liquid scintillation analyzer. Specific binding was obtained by subtracting non specific binding from total binding.

[1] = target: T2, TSPO receptors in SCC-25 cell line (Homo sapiens, UniProt P30536); assay: Displacement of [3H]PK11195 from TSPO receptors in SCC-25 cells; format: binding; details: for potency in displacing [3H]PK11195, fold lower than PK11195: SCC-25 membrane, relative to PK11195
T2 construct: endogenous in cells; host or cells: SCC-25
Method: (§2) Cells were scraped from the culture dishes, washed with phosphate-buffered saline (PBS), and centrifuged at 1200 g for 10 minutes. Then the cell pellets were re-suspended in 1 mL of 50 mM phosphate buffer, pH 7.4, and centrifuged at 1200 g for 10 minutes. […] After incubation for 80 minutes at room temperature, samples were filtered under vacuum over Whatman GF/B filters and washed three times with phosphate buffer. Filters were placed in vials containing 4 mL of Opti-Fluor (Packard, Groningen, The Netherlands) and counted for radioactivity in a scintillation counter after 12 hours. The maximal number of binding sites (Bmax) and equilibrium dissociation constants were calculated from the saturation curve of [^3H]

[2] = target: T3, TSPO receptors in SCC-15 cell line (Homo sapiens, UniProt P30536); assay: Displacement of [3H]PK11195 from TSPO receptors in SCC-15 cells; format: binding
T3 construct: endogenous in cells; host or cells: SCC-15
Method: as §2

[3] = target: T4, TSPO receptors in human tongue cancer cell line SCC-25 (Homo sapiens, UniProt P30536); assay: [3H]PK11195 saturation binding (Scatchard) in SCC-25 cells
T4 construct: Cells were scraped from the culture dishes, washed with phosphate-buffered saline (PBS), and centrifuged; endogenous in cells; host or cells: SCC-25
Method: as §2

[4] = target: T5, TSPO receptors in H1299 lung cancer cells (Homo sapiens, UniProt P30536); assay: [3H]PK11195 saturation binding (Scatchard) in H1299 cells
T5 construct: Cells were scraped from the culture dishes, washed with phosphate-buffered saline (PBS), and centrifuged; endogenous in cells; host or cells: H1299
Method: as §2

TSPO receptor in saliva [5] = target: T6, TSPO receptor in saliva (Homo sapiens, UniProt P30536); assay: [3H]PK11195 saturation binding with Scatchard analysis in human saliva; details: n=10
T6 construct: from tissue; host or cells: cells pelleted from human saliva samples (volunteers; smokers and non-smokers)
Method: as §1

[6] = target: T7, TSPO receptors in human tongue cancer cell line SCC-15 (Homo sapiens, UniProt P30536); assay: [3H]PK11195 saturation binding (Scatchard) in SCC-15 cells
T7 construct: endogenous in cells; host or cells: SCC-15
Method: as §2

TSPO receptor in saliva [7] = target: T6, TSPO receptor in saliva; assay: [3H]PK11195 binding in saliva from heavy smokers and non-smokers; details: for mean TSPO binding: 6 nM ligand
Method: as §1
The effect of long term CS-exposure on the salivary TSPO, of heavy smokers, was investigated. Saliva samples were collected from heavy smokers (smokers group) and from a control group of non-smoking volunteers (control group), and the total protein expression level as well as TSPO binding capacity was evaluated as follows.
The mean TSPO binding was calculated and found to be 53% lower in the smokers group, as compared to the control group (694±264; n=9 and 1,480±1,157; n=16, respectively; see, FIG. 7b). This statistically significant reduction (p<0.05) further supports the results obtained for the in-vitro exposure of saliva cells to CS (detailed above), and point to a CS-related reduced TSPO receptor binding capacity.

[8] = 10^-8 M, medium + 30% saliva, CS 120 minutes
[9] = inhibition of [3H]PK11195 binding, human saliva, four independent experiments, read-out: Ki
[10] = 50% inhibition of [3H]PK11195 binding, SCC-25, read-out: IC50
[11] = 50% inhibition of [3H]PK11195 binding, SCC-15, read-out: IC50

T3 sequence (P30536 whole entry): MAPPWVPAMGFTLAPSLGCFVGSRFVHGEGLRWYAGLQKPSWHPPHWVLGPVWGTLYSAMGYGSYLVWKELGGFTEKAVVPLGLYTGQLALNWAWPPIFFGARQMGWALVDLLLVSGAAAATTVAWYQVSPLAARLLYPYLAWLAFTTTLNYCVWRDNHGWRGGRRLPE
T6 sequence (P30536 whole entry): as above
T1 sequence (P30536 whole entry): as above
T2 sequence (P30536 whole entry): as above
T4 sequence (P30536 whole entry): as above
T7 sequence (P30536 whole entry): as above
T5 sequence (P30536 whole entry): as above

## O=C1CN=C(c2ccccc2Cl)c2cc([N+](=O)[O-])ccc2N1 [Clonazepam]
H1299 lung cancer cells; 10^-7 M
  effect on survival of H1299 cells exposed to CS (in words): No significant increase in survival levels
H1299 lung cancer cells; 10^-7 M, listed as clonazepam
  effect on survival of H1299 cells exposed to CS (in words): not significantly altered
H1299 lung cancer cells; 10^-8 M
  effect on survival of H1299 cells exposed to CS (in words): did not increase the survival level
H1299 lung cancer cells; [8]
  decrease of cells survival: 10.65%
Human salivary TSPO; human saliva
  affinity to TSPO (in words): negligible affinity
[1]; SCC-25
  affinity for TSPO (in words): negligible affinity

## CN1C(=O)CN=C(c2ccccc2)c2cc(Cl)ccc21 [Diazepam]
H1299 lung cancer cells; 10^-7 M
  effect on survival of H1299 cells exposed to CS (in words): significantly increased
H1299 lung cancer cells; 10^-7 M, medium + 30% saliva, CS 120 minutes
  increase of cell survival: 16%
H1299 lung cancer cells; 10^-8 M
  effect on survival of H1299 cells exposed to CS (in words): significantly increased
H1299 lung cancer cells; [8]
  increase of cell survival: 17.4%
Human salivary TSPO
  Ki: 4500 nM
Human salivary TSPO; human saliva
  binding affinity lower than that of PK11195: three orders of magnitude
[1]
  IC50: 14200 ± 5720 nM
  potency in displacing [3H]PK11195, fold lower than PK11195: 1580 times
[2]
  IC50: 14100 ± 15200 nM

## CCCCCCN(CCCCCC)C(=O)Cc1c(-c2ccc(F)cc2)[nH]c2ccccc12 [FGIN-1-27]
Human salivary TSPO; human saliva
  binding affinity lower than that of PK11195: two orders of magnitude
Human salivary TSPO; [9]
  Ki: 150 nM
[1]; [10]
  IC50: 152 ± 19 nM
[1]
  potency in displacing [3H]PK11195, fold lower than PK11195: 17 times
[2]; [11]
  IC50: 164 nM

## CN1C(=O)CN=C(c2ccc(Cl)cc2)c2cc(Cl)ccc21 [Ro5-4864, 4-chlorodiazepam]
Human salivary TSPO; human saliva
  binding affinity lower than that of PK11195: two orders of magnitude
Human salivary TSPO; [9]
  Ki: 500 nM
[1]; [10]
  IC50: 666 ± 36 nM
[1]
  potency in displacing [3H]PK11195, fold lower than PK11195: 74 times
[2]; [11]
  IC50: 2070 ± 1550 nM

## CCC(C)N(C)C(=O)c1cc2ccccc2c(-c2ccccc2Cl)n1 (stereo not shown) [[^3H]PK11195]
[3]
  Bmax (maximal binding capacity): 3133±643 fmoles/mg protein
  non-specific binding as part of total binding: a third
[4]
  maximum amount of specifically bound ligand (Bmax): 3274±787 pmol/mg of protein
TSPO receptor in saliva [5]
  Bmax (maximal binding capacity): 6,471±1,584 fmol/mg protein
[6]
  Bmax: 6956±5492 fmoles/mg protein
  non-specific binding as part of total binding: 25±3.2%
TSPO receptor in saliva [7]; control group (non-smokers), n=16
  mean TSPO binding: 1,480±1,157
TSPO receptor in saliva [7]; smokers group, n=9
  mean TSPO binding: 694±264
TSPO receptor in saliva [7]; smokers vs control group
  mean TSPO binding lower in smokers than control group: 53%

From patent publication US8685962B2 (priority 2007, dated 2014)
